Assay [1] has as its target human estrogen receptor (ERα) (Homo sapiens (Human), UniProt P03372). Put plainly: Human ERα Reporter Assay (Indigo Biosciences). The format is cell-based. The note with it: antagonist mode, 17β-estradiol 8E-10 M, 24 hours. The protocol:
All reagents used in this assay was supplied in the Human ERα Reporter Assay by Indigo Biosciences # IB00401. In an effort to screen selective estrogen receptor degraders (SERDs), the Human ERα Reporter Assay, supplied by Indigo Biosciences, was utilized to quantify antagonist functional activity against the human estrogen receptor. Reporter cells were thawed at 37° C. and added to pre-warmed to 37° C. cell recovery medium (CRM). Stock concentration of 17β-estradiol was serially diluted in CRM. Diluted 17β-estradiol was added to CRM containing reporter cells resulting in a working concentration of 1.6 nM (2×). Cells plus 17β-estradiol were dispensed in a kit-supplied white walled 96-well plate. Concentrated stocks of test compounds were diluted to 2× working concentrations in cell screening medium (CSM). 2× concentrated compounds were added to the plated cells in a dose-dependent manner resulting in a final concentration range of 1E-11 to 1E-5 M and a final 17β-estradiol concentration of 8E-10 M. Assay plates were incubated for 24 hours in a humidified 37° C. incubator. Culture medium was removed from the assay plates by inversion. Detection substrate and buffer was warmed to room temperature, mixed thoroughly, and immediately added to the assay plates. Assay plates were incubated for 15 minutes at room temperature protected from light. Luminescence was measured in a Synergy HTX luminescence plate reader. Data is processed utilizing GraphPad Prism 7 by graphing the relative light units measured at each compound concentration. This procedure was used to produce the graph in FIG. 1, FIG. 9, FIG. 10, FIG. 11, FIG. 12, FIG. 13, and FIG. 14.
(§1) In the below table for the Estrogen Receptor Degradation Assay and the Human ERα Reporter Assay: […]
In general terms: A reporter such as luciferase makes a cellular process visible.

Assay [2] concerns the target estrogen receptor α in MCF7 cells (Homo sapiens (Human), UniProt P03372). Description: Estrogen Receptor (ER) Degradation Assay (In-Cell Western). The format is cell-based. The note with it: for IC50: 24 hours, In-Cell Western; for % Estrogen Receptor Remaining: vehicle set to 100%. The protocol: A screening strategy was implemented utilizing an In-Cell Western assay to measure their ability to degrade the estrogen receptor in vitro. MCF7 cells, which are estrogen receptor positive, were plated at a cell density of […] into black walled clear bottom 96-well plates. Cells were incubated in phenol red free Dulbecco's Modified Eagle Media (DMEM) supplemented with 8% charcoal-stripped fetal bovine calf serum for 24 hours in a humidified 37° C. incubator. Concentrated stock compounds were diluted to 10× in complete media. Compounds were added to the plated cells in a dose-dependent manner ranging from 1E-12 to 1E-05 M and incubated for an additional 24 hours at 37° C. Culture medium was removed from the culture plates by gentle inversion. Cells were fixed in 4% paraformaldehyde in 1× phosphate buffered saline-calcium magnesium free (PBS-CMF) for 15 minutes at room temperature, washed 3 times for 5 minutes each in 1×PBS-CMF. Cells were permeabilized in immunofluorescence (IF) blocking buffer (Cell Signaling #12411) containing 0.3% Triton X100. Cells were washed 3 times for 5 minutes each in 1×PBS-CMF and incubated in estrogen receptor α (D6R2W) rabbit primary antibody (Cell Signaling #13258) diluted 1:300 in IF antibody dilution buffer (Cell Signaling #12378). Cells were washed 3 times for 5 minutes each in 1×PBS-CMF and stained with goat anti-rabbit (Biotium #CF770) secondary antibody diluted 1:2000 in IF antibody dilution buffer and normalizing stain CellTag 700 diluted 1:500 (Licor #926-41090). ER protein expression was assessed by the Licor Odyssey CLx imaging system using Image Studio v5.2. Data is processed utilizing GraphPad Prism 7 by subtracting background from the vehicle and setting the vehicle to 100% ER activity, followed by comparing treated samples to vehicle. This procedure was used to produce the graph in FIG. 2, FIG. 3, FIG. 4, FIG. 5, FIG. 6, FIG. 7, and FIG. 8.
as §1

The term IC50 denotes the midpoint of a concentration-inhibition curve.

Chain of human estrogen receptor (ERα) (P03372 whole entry): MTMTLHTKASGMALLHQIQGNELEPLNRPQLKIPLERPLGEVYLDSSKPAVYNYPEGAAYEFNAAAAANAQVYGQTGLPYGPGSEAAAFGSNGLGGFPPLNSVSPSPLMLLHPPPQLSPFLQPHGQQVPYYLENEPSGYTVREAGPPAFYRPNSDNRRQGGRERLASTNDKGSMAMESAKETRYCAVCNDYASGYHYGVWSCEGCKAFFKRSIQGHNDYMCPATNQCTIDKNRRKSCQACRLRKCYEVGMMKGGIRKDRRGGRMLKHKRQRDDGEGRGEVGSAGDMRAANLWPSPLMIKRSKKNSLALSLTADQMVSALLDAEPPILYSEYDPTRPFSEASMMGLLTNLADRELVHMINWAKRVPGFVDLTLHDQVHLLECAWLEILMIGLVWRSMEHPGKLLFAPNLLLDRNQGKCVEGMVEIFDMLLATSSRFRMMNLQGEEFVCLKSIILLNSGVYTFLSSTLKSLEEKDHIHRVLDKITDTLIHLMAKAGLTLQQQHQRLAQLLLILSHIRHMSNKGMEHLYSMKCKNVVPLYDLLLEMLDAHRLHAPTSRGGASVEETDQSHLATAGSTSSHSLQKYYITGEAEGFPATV
Chain of estrogen receptor α in MCF7 cells (P03372 whole entry): as above

As for `Cc1cc(F)cc(C)c1C(=O)c1sc2cc(O)ccc2c1Oc1ccc(CCNC(C)C)cc1` [Compound 105, (4-fluoro-2,6-dimethylphenyl)(6-hydroxy-3-(4-(2-(isopropylamino)ethyl)phenoxy)benzo[b]thiophen-2-yl)methanone], the IC50 is < 1000 nM in assay [1] and < 50000 nM in assay [2]. The “% Estrogen Receptor Remaining” value in assay [2] is listed as “**** (**** denotes 0-40% Estrogen Receptor remaining)”.
Regarding `Cc1cc(F)cc(C)c1C(=O)c1sc2cc(O)ccc2c1Oc1ccc(OCCN2CCCC2)cc1` [Compound 108, (4-fluoro-2,6-dimethylphenyl)(6-hydroxy-3-(4-(2-(pyrrolidin-1-yl)ethoxy)phenoxy)benzo[b]thiophen-2-yl)methanone], the “% Estrogen Receptor Remaining” value in assay [2] is given as “*** (*** denotes 41-70% Estrogen Receptor remaining)”.
Turning to `CCNCCc1ccc(Oc2c(C(=O)c3c(C)cc(F)cc3C)sc3cc(O)ccc23)cc1` [Compound 100, (3-(4-(2-(ethylamino)ethyl)phenoxy)-6-hydroxybenzo[b]thiophen-2-yl)(4-fluoro-2,6-dimethylphenyl)methanone], in assay [1], the IC50 was < 1000 nM. Further, in assay [2], the IC50 is < 1000 nM and the “% Estrogen Receptor Remaining” value is listed as “**** (**** denotes 0-40% Estrogen Receptor remaining)”.
Regarding `Cc1cc(F)cc(C)c1C(=O)c1sc2cc(O)ccc2c1-c1ccc(OCCN2CC(CF)C2)cc1` [Compound 120, (4-f1uoro-2,6-dimethylphenyl)(3-(4-(2-(3-(fluoromethyl)azetidin-1-yl)ethoxy)phenyl)-6-hydroxybenzo[b]thiophen-2-yl)methanone], the IC50 in assay [1] was < 50000 nM; in assay [2], < 1000 nM. The “% Estrogen Receptor Remaining” value in assay [2] was “*** (*** denotes 41-70% Estrogen Receptor remaining)”.
`Cc1cc(F)cc(C)c1C(=O)c1sc2cc(O)ccc2c1-c1ccc(CCN2CC(CF)C2)cc1` [Compound 119, (4-fluoro-2,6-dimethylphenyl)(3-(4-(2-(3-(fluoromethyl)azetidin-1-yl)ethyl)phenyl)-6-hydroxybenzo[b]thiophen-2-yl)methanone]: the IC50 in assay [1] was < 1000 nM. In addition, in assay [2], the IC50 was < 1000 nM and the “% Estrogen Receptor Remaining” value is “*** (*** denotes 41-70% Estrogen Receptor remaining)”.
Consider `Cc1cc(F)cc(C)c1C(=O)c1sc2cc(O)ccc2c1Oc1ccc(CN)cc1` [Compound 115, (3-(4-(aminomethyl)phenoxy)-6-hydroxybenzo[b]thiophen-2-yl)(4-fluoro-2,6-dimethylphenyl)methanone], for which the IC50 in assay [1] and in assay [2] was < 1000 nM in each case. The “% Estrogen Receptor Remaining” value in assay [2] was “*** (*** denotes 41-70% Estrogen Receptor remaining)”.
`CCNCCc1ccc(CN(CC)c2cc(OC)ccc2[C@@H]2CCc3cc(O)ccc3C2)cc1.Cl.Cl` (stereo in doubt) [RAD- 1901, reference compound]: the “% Estrogen Receptor Remaining” value in assay [2] was “**** (**** denotes 0-40% Estrogen Receptor remaining)”.
As for `Cc1cc(F)cc(C)c1C(=O)c1sc2cc(O)ccc2c1Oc1ccc(CCN2CC[C@H](C)C2)cc1` [Compound 118, (S)-(4-fluoro-2,6-dimethylphenyl)(6-hydroxy-3-(4-(2-(3-methylpyrrolidin-1-yl)ethyl)phenoxy)benzo[b]thiophen-2-yl)methanone], the IC50 in assay [1] was < 1000 nM. In assay [2], the IC50 is < 1000 nM and the “% Estrogen Receptor Remaining” value is on record as “*** (*** denotes 41-70% Estrogen Receptor remaining)”.
As to `Cc1cc(F)cc(C)c1C(=O)c1sc2cc(O)ccc2c1Oc1ccc(OCCN2CCCCC2)cc1` [Compound 106, (4-fluoro-2,6-dimethylphenyl)(6-hydroxy-3-(4-(2-(piperidin-1-yl)ethoxy)phenoxy)benzo[b]thiophen-2-yl)methanone], the “% Estrogen Receptor Remaining” value in assay [2] is listed as “*** (*** denotes 41-70% Estrogen Receptor remaining)”.
The same measure, in the same setting: under `Cc1cc(F)cc(C)c1C(=O)c1sc2cc(O)ccc2c1Oc1ccc(OCCN2CCCCCC2)cc1` [Compound 107, (3-(4-(2-(azepan-1-yl)ethoxy)phenoxy)-6-hydroxybenzo[b]thiophen-2-yl)(4-fluoro-2,6-dimethylphenyl)methanone] stands “*** (*** denotes 41-70% Estrogen Receptor remaining)”.

(Values after US10208011B2, “Benzothiophene estrogen receptor modulators” (G1 Therapeutics, Inc., priority 2017, dated 2019).)
